Experimental data from patent US10495642B2, “Inhibitors of proteins specific for the secretome of a chondrocyte for use in the treatment of breast cancer metastasis” (ALBERT-LUDWIGS-UNIVERSITÄT FREIBURG, priority 2013, dated 2019).

Experiments:
[1] = system: human pancreatic cancer, malignant melanoma, papillary thyroid cancer, breast cancer, colon cancer, and prostate cancer cells; conditions: human cancer cells with high basal TLR3 and Wnt5a; cited from earlier work
4T1 cells = conditions: cited from earlier work
[2] = system: MCF-7 and MDA-MB-231 as well as 4T1 cancer cell lines; conditions: addition of CXCL5, cited from earlier work
MDA-MB-231 cells = test: Transwell migration of MDA-MB-231 cells towards chondrocyte conditioned media; format: cell-based, human; conditions: chondrocyte conditioned media as chemoattractant
Procedure: Cell differentiation: Primary human monocytes, articular chondrocytes, and adipose tissue derived stromal cells were isolated from healthy donors and differentiated into osteoclasts (OC), articular chondrocytes (AC) and osteoblasts (OB) respectively. Cell lines: MDA-MB-231 (MDA), a metastatic, and MCF7A, an epithelial like breast cancer cell line, were used in this study.
Serum free conditioned media: After differentiation, cells were washed 2 times with PBS and incubated with DMEM for 24 hours. After 24 hours, conditioned media was harvested and passed through a 0.45 μm filter.
Migration: MDA-MB-231 cells were serum-starved for 24 hours before testing of the migration. Migration media was plated in the bottom of the well and a transwell insert (8 μm pores) was placed on top. 25.000 cells were seed on top of the filter. After 15 hours, the filters were washed and non-migrated cells were removed. Migrated cells were stained with H&E and counted under a microscope. Numbers were obtained as the average number of 5 random fields per filter.

[3] = molecular target: T1, recombinant human CXCL5/ENA-78 (Homo sapiens, UniProt P42830); test: Phage display identification of CXCL5 binding peptides; conditions: region of CXCL5 of FIGS. 7 and 8
T1 sequence (P42830 37-114): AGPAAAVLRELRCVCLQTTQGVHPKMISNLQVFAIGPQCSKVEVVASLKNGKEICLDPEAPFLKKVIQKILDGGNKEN
Text: Phage display: 12 amino acid binding peptides towards CXCL5 were identified using a commercial phage display system from […].

## Cn1c(-c2ccccc2)c[nH]c1=S [Peptide C10, 5-phenylmethimazole]
[1]
  cell growth and migration: suppression of cell growth and migration

## CXCL5: small cytokine of the CXC chemokine family, epithelial-derived neutrophil-activating peptide 78
4T1 cells; 4T1 mouse model
  tumor nodules in livers, lungs and intestines versus control group: more numerous and larger
4T1 cells; CXCL5 0.5 mg/kg
  metastasis of 4T1 cells in mice: increased the metastasis
[2]; MCF-7, MDA-MB-231 and 4T1 cancer cell lines
  migration and invasiveness: enhance the migration and invasiveness
[2]; MCF-7 or MDA-MB-231 cancer cells
  cell proliferation: did not increase cell proliferation

## H-IGKVDSNSVSHA-NH2 [Peptide 2]
MDA-MB-231 cells
  migration of MDA-MB-231 cells in the presence of the chondrocyte secretome: reduces migration
[3]
  binding to the pocket region of CXCL5: bind to said region

## H-Pro-Val-Trp-Ala-his-leu-Asn-Pro-Pro-Trp-Leu-Ala-NH2 [Peptide 1]
MDA-MB-231 cells
  migration of MDA-MB-231 cells in the presence of the chondrocyte secretome: reduces migration
[3]
  binding to the pocket region of CXCL5: bind to said region
